One block for each compound: values may come before it.
Assays:
Type in all cases: cell-based
[1] = target: Protein cereblon/Androgen receptor (Homo sapiens) (UniProt P10275+Q96SW2); experiment: Protac activity at CRBN/AR in human VCaP cells assessed as AR degradation at 0.0001 to 1 uM after 16 hrs by sandwich ELISA relative to control
[2] = target: Protein cereblon/Serine/threonine-protein kinase TBK1 (Homo sapiens) (UniProt Q9UHD2+Q96SW2); experiment: Protac activity at CRBN/TBK1 in human Panc02.13 cells assessed as TBK1 degradation at 0.1 to 1 uM after 16 hrs by Western blot analysis relative to control
Chain of Protein cereblon/Serine/threonine-protein kinase TBK1 (Homo sapiens) (Q96SW2 whole entry, looked up): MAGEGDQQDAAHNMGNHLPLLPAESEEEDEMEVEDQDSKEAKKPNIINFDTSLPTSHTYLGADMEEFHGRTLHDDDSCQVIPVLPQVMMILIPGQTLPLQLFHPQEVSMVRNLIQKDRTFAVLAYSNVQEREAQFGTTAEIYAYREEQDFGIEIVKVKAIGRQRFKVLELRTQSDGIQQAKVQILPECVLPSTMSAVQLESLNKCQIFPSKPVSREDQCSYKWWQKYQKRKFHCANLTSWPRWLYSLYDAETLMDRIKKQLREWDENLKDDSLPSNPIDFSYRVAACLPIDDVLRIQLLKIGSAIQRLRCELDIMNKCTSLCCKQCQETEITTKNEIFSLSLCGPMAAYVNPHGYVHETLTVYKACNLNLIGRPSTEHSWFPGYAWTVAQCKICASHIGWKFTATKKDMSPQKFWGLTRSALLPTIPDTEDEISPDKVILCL
Chain of Protein cereblon/Serine/threonine-protein kinase TBK1 (Homo sapiens) (Q9UHD2 whole entry, looked up): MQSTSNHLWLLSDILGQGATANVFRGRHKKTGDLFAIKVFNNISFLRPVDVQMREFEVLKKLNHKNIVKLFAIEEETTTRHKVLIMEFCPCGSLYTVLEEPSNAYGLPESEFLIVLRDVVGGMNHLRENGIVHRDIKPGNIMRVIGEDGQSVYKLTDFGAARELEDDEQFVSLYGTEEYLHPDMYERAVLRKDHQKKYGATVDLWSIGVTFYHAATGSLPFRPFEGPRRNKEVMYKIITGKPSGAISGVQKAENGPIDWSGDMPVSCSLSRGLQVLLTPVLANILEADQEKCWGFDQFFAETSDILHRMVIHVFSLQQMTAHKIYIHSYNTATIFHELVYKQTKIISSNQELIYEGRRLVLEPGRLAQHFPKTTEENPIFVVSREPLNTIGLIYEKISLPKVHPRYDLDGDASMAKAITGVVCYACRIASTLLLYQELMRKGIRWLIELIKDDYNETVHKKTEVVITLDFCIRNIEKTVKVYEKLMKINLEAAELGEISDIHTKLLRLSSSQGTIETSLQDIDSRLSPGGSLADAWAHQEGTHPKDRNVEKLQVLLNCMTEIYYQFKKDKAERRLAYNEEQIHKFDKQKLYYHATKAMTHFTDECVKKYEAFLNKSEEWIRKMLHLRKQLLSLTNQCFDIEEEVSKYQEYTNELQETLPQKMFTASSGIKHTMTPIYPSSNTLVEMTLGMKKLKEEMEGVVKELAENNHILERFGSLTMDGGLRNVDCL

[3] = target: Protein cereblon/Steroid hormone receptor ERR1 (Homo sapiens) (UniProt P11474+Q96SW2); experiment: Protac activity at CRBN/ERRalpha in human NAMALWA cells assessed as ERRalpha degradation at 0.1 to 1 uM after 16 hrs by Western blot analysis relative to control
Chain of Protein cereblon/Steroid hormone receptor ERR1 (Homo sapiens) (P11474 whole entry, looked up): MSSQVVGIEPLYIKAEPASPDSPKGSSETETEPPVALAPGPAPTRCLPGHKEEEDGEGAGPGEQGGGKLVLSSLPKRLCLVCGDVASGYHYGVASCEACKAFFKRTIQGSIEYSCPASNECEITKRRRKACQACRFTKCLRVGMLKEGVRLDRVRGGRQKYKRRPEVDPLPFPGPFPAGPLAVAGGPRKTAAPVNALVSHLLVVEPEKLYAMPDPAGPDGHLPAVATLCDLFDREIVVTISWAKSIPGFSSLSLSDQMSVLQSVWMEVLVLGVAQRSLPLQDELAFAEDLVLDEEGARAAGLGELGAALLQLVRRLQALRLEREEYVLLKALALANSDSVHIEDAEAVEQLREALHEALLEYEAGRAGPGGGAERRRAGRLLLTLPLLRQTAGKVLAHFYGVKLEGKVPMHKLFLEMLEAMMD
Chain of Protein cereblon/Steroid hormone receptor ERR1 (Homo sapiens) (Q96SW2 whole entry, looked up): as the sequence (Q96SW2 whole entry, looked up) above

[4] = target: Protein cereblon/Bromodomain-containing protein 4 (Homo sapiens, UniProt O60885+Q96SW2); experiment: Protac activity at CRBN/BRD4 in human 22Rv1 cells assessed as c-MYC degradation after 18 hrs by ELISA
Chain of Protein cereblon/Bromodomain-containing protein 4 (Q96SW2 whole entry, looked up, other chains not shown): as the sequence (Q96SW2 whole entry, looked up) above

Chain of Protein cereblon/Androgen receptor (Homo sapiens) (P10275 whole entry, looked up): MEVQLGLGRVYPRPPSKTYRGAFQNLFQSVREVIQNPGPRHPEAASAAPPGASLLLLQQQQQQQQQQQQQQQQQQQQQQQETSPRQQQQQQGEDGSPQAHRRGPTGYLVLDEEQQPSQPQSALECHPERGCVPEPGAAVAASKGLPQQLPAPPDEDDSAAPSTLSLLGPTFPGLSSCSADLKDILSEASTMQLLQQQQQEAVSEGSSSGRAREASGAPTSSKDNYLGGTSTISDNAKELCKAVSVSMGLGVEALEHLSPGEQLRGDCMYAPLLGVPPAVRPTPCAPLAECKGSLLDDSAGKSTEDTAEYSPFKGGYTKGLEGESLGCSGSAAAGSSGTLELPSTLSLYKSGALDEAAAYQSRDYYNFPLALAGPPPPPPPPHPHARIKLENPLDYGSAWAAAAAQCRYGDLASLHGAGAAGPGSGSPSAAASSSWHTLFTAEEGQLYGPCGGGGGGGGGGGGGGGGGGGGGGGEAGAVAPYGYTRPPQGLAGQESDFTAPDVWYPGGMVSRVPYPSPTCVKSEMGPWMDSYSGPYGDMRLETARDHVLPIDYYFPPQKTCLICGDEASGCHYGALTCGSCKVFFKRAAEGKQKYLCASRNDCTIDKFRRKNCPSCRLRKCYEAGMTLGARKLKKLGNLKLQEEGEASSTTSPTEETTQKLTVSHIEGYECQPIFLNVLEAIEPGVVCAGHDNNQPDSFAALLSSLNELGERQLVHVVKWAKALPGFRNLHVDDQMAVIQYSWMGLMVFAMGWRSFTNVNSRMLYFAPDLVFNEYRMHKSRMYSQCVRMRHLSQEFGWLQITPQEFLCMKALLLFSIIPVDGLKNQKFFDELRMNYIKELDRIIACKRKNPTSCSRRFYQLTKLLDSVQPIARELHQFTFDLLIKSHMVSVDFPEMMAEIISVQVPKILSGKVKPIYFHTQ
Chain of Protein cereblon/Androgen receptor (Homo sapiens) (Q96SW2 whole entry, looked up): as the sequence (Q96SW2 whole entry, looked up) above

SMILES: CC1(C)C(=O)N(c2ccc(C#N)c(C(F)(F)F)c2)C(=S)N1c1ccc(-c2ccc(OCCCCCNc3cccc4c3C(=O)N(C3CCC(=O)NC3=O)C4=O)cc2)cc1 (configuration not stated)
- Activity [1]: > 50%

SMILES: COc1cc(/C=C2\SC(=O)N(CCCOCCNc3cccc4c3C(=O)N(C3CCC(=O)NC3=O)C4=O)C2=O)ccc1Oc1ccc(C#N)cc1C(F)(F)F (configuration not stated)
- Activity [3]: > 50%

SMILES: Cc1sc2c(c1C)C(c1ccc(Cl)cc1)=NC(CC(=O)NCCOCCNc1cccc3c1C(=O)N(C1CCC(=O)NC1=O)C3=O)c1nnc(C)n1-2 (configuration not stated)
- IC50 [4]: < 50 nM

SMILES: Cc1sc2c(c1C)C(c1ccc(Cl)cc1)=NC(CC(=O)N[C@@H](C)c1ccc(OCCOCCNc3cccc4c3C(=O)N(C3CCC(=O)NC3=O)C4=O)cc1)c1nnc(C)n1-2 (some centres not stated)
- IC50 [4]: < 50 nM

More lines, now with the values ahead:

- Activity [1]: > 50%
SMILES: CC1(C)[C@H](NC(=O)c2ccc(OCCCCCOCCCNc3cccc4c3C(=O)N(C3CCC(=O)NC3=O)C4=O)cc2)C(C)(C)[C@H]1Oc1ccc(C#N)c(Cl)c1 (some centres not stated)

- Activity [2]: > 50%
SMILES: CN(CCCNc1nc(Nc2ccc(OCCOCCOCCOCCOCCNc3cccc4c3C(=O)N(C3CCC(=O)NC3=O)C4=O)cc2)ncc1Br)C(=O)C1CCC1 (configuration not stated)

- Activity [2]: > 50%
SMILES: CN(CCCNc1nc(Nc2ccc(OCCOCCOCCOCCOCCOCCNc3cccc4c3C(=O)N(C3CCC(=O)NC3=O)C4=O)cc2)ncc1Br)C(=O)C1CCC1 (configuration not stated)

Source: ChEMBL document CHEMBL4364351, “PROTAC Degradation of Bromodomain for the Treatment of Hyperplasia and Cancer” (ACS Med Chem Lett, 2019)
